These results are taken from US12098176B2, “Keratin BD-4, preparation method, and pharmaceutical composition and use thereof” (Institute of Materia Medica, Chinese Academy of Medical …, priority 2019, dated 2024).

Counter-ions that a name gives are not always drawn.

For this experiment, the system named is phenol red excretion in mice. Nature of the experiment: Expectorant test, phenol red excretion method in mice. The experiment is classed as in vivo, mouse. The method, then: Experimental example 5 The pharmacodynamic test of protein BD-4 (Example 4 protein) on the expectorant of phenol red excretion method in mice.
• Solvent control group; • Mucosultan 30 mg/kg group; • Protein BD-4, 20 mg/kg group, 50 mg/kg group. Method: Model Preparation and Administration:
The animals were fasted and watered 16 hours before the experiment. Orally administered Mucosultan and different doses of protein BD-4 (administration volume 10 ml/kg) in groups, and the solvent control group was given the same volume of distilled water. One hour later, 2.5% phenol red solution was injected intraperitoneally, Kill the mouse by removing the neck after 30 minutes. Take the trachea from below the thyroid cartilage to the branch of the trachea. Put the trachea into 3 ml 5% NaHCO3 solution and let it stand for 3 hours. Take 1 ml of the supernatant and centrifuge at 3000 rpm for 5 minutes. Measure and record the absorbance at 546 nm. According to the standard curve of phenol red, the excretion of phenol red was calculated.
Record the time point of oral administration, the time point of intraperitoneal injection of 2.5% phenol red solution, and the time point of tracheal extraction respectively; The absorbance of each group of samples was measured by the microplate reader at 546 nm, Calculate the excretion of phenol red according to the standard curve of phenol red. […]

The molecule `Nc1c(Br)cc(Br)cc1CN[C@H]1CC[C@H](O)CC1` [Mucosolvan, ambroxol hydrochloride, reference compound] gave a Phenol red excretion (Mucosolvan 30 mg/kg oral, X ± SEM) of 1.138 ± 0.079 µg/mL. Moreover, under “Mucosultan 30 mg/kg, P<0.05”, the “Phenol red excretion vs solvent control group” value is “significantly increased”.
